Results taken from PubChem BioAssay (NCI).
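Following 48 hours of exposure in 96-well plates, responses at five concentrations were used to interpolate endpoints linearly. GI50: concentration for 50% inhibition of growth. TGI denotes the concentration required for complete inhibition of growth.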

Tests used:
Assay in all cases: NCI tumour cell line growth inhibition, 48 h
KM12 colon = tested on: KM12 colon
COLO 205 colon = tested on: COLO 205 colon
NCI-H226 lung = tested on: NCI-H226 lung
KM20L2 colon = tested on: KM20L2 colon
CAKI-1 renal = tested on: CAKI-1 renal
OVCAR-4 ovarian = tested on: OVCAR-4 ovarian
UACC-257 melanoma = tested on: UACC-257 melanoma
CCRF-CEM leukemia = tested on: CCRF-CEM leukemia
DMS 114 small cell lung = tested on: DMS 114 small cell lung
EKVX NSCLC = tested on: EKVX NSCLC
PC-3 prostate = tested on: PC-3 prostate

Structure (SMILES)	TGI (KM12 colon) [µM]	TGI (COLO 205 colon) [µM]	TGI (NCI-H226 lung) [µM]	TGI (KM20L2 colon) [µM]	TGI (CAKI-1 renal) [µM]	TGI (OVCAR-4 ovarian) [µM]	TGI (UACC-257 melanoma) [µM]	TGI (CCRF-CEM leukemia) [µM]	TGI (DMS 114 small cell lung) [µM]	TGI (EKVX NSCLC) [µM]	TGI (PC-3 prostate) [µM]	GI50 (NCI-H226 lung) [µM]	GI50 (KM12 colon) [µM]	GI50 (PC-3 prostate) [µM]	GI50 (COLO 205 colon) [µM]	GI50 (CAKI-1 renal) [µM]	GI50 (OVCAR-4 ovarian) [µM]	GI50 (UACC-257 melanoma) [µM]	GI50 (CCRF-CEM leukemia) [µM]	GI50 (EKVX NSCLC) [µM]
CCCCOc1ccc(OCCCCCCCCCC[N+](C)(C)C)cc1	2.97	2.68	15.2	3.87	16.6	14.8	17.8	3.87	6.75	46	–	–	–	–	–	–	–	–	–	–
CN(C)CCNC(=O)c1cc(Cl)cc2ccc(-c3ccccc3)nc12	22.2	4.28	7.02	13.1	8.56	13.7	10.8	6.01	12.6	21.5	–	–	–	–	–	–	–	–	–	–
CS(=O)(=O)CSCSSCS(C)(=O)=O	> 100	38	> 100	> 100	> 57.2	> 100	> 100	70.5	> 92.1	> 100	–	–	–	–	–	–	–	–	–	–
O=S(=O)(O)c1ccc(N=Nc2ccc(N=Nc3ccc(/C=C/c4ccc(N=[N+]([O-])c5ccc(/C=C/c6ccc(N=Nc7ccc(N=Nc8ccc(S(=O)(=O)O)cc8)cc7)cc6S(=O)(=O)O)c(S(=O)(=O)O)c5)cc4S(=O)(=O)O)c(S(=O)(=O)O)c3)cc2)cc1	> 100	> 100	> 100	> 100	–	> 100	> 100	> 100	> 100	> 100	–	–	–	–	–	–	–	–	–	–
CC(C)c1cccc(C(C)C)c1NC(=O)/C(CC(=O)CC(c1ccccc1)c1c(O)c2ccccc2oc1=O)=N/O (stereo not given)	> 100	> 100	> 100	–	> 100	> 100	> 100	> 100	–	> 100	> 100	–	–	–	–	–	–	–	–	–
CCOC(=O)C1(C#N)C(c2ccccc2)CC(O)(c2ccc(Cl)cc2)C(C(=O)c2ccc(Cl)cc2)C1c1ccccc1 (stereo not given)	> 100	> 100	> 100	> 100	> 100	> 100	> 100	> 100	> 100	> 100	–	–	–	–	–	–	–	–	–	–
CN(C)c1ccc(/C=C(\NC(=O)c2ccccc2)c2nn(C)c(=O)o2)cc1	> 100	> 100	93.8	–	> 100	97.7	> 100	> 100	–	> 100	> 100	–	–	–	–	–	–	–	–	–
CSc1cc(=O)n2c3ccccc3c3ccnc1c32	> 100	> 100	> 100	> 100	–	> 100	> 100	> 100	> 100	56.8	–	–	–	–	–	–	–	–	–	–
COC(=O)C1=C(C(=O)OC)SC(=CC#CC=C2SC(C(=O)OC)=C(C(=O)OC)S2)S1	> 100	> 54.9	35.4	71.6	> 68.3	35.3	> 100	> 100	> 60.7	> 100	–	–	–	–	–	–	–	–	–	–
CC(C)C(CC(=O)OCC(CO)OC(=O)CC(C(C)C)C(C)C)C(C)C (stereo not given)	32	20	30.1	–	25.4	33.4	31.2	31.7	–	27	30.3	–	–	–	–	–	–	–	–	–
NC(=O)c1csc(C2(O)COC(CO)C2O)n1 (stereo not given)	> 100	> 100	> 100	–	> 100	> 100	> 100	> 100	–	> 100	> 100	–	–	–	–	–	–	–	–	–
COC(=O)Cc1ccc2c(cnn2-c2ccccc2)c1OC	> 10	> 10	> 10	–	> 10	> 10	> 10	> 10	–	> 10	> 10	–	–	–	–	–	–	–	–	–
CCP(=O)(OC)C1=CCN(C(=O)OCC[Si](C)(C)C)CC1 (stereo not given)	> 100	> 100	> 100	–	> 100	> 100	> 100	> 100	–	> 100	> 100	–	–	–	–	–	–	–	–	–
O=C(O)c1cccc2cccc(-c3cccc4cccc(C(=O)O)c34)c12	> 100	> 100	> 100	–	> 100	> 100	> 100	> 100	–	> 100	> 100	–	–	–	–	–	–	–	–	–
COc1ccccc1CN=C1Nc2ccncc2S(=O)(=O)N1c1ccccc1	> 100	> 100	> 100	–	> 100	> 100	> 100	> 100	–	> 100	> 100	–	–	–	–	–	–	–	–	–
Cc1[nH]c(=O)nc(NCCNCCO)c1C(=O)Nc1cccc2cc3ccccc3cc12	> 100	> 100	> 100	–	> 100	> 100	> 100	> 100	–	> 100	> 100	–	–	–	–	–	–	–	–	–
CN(C)CCCNC(=O)c1cc(NC(=O)c2cc(NC(=O)CCCn3c4ccccc4c4ccccc43)cn2C)cn1C	43.9	7.88	39	–	43.5	35.5	41.2	> 100	–	46.2	> 56.3	9.26	–	–	–	–	–	–	–	–
CCCCSc1nsc(N(C(=O)c2ccccc2)C(=O)c2ccccc2)n1	> 100	41.5	93.9	–	> 100	> 100	74.9	> 100	–	77.4	> 100	–	–	–	–	–	–	–	–	–
O=C(OCCN=c1c2ccccc2ccc2ccccc12)c1ccccc1	> 100	> 100	> 100	–	> 100	> 100	> 100	> 100	–	> 100	> 100	–	–	–	–	–	–	–	–	–
O=S(=O)(c1cc(Cl)ccc1Cl)n1ccnc1	> 100	34.1	52.8	–	> 100	> 100	> 100	> 100	–	> 100	> 100	–	–	–	–	–	–	–	–	–
NCCCCNCCCNC(=O)c1nc(-c2nc(CCN)sc2Cl)sc1Cl	> 100	> 100	> 100	> 100	> 100	71.8	> 100	> 100	52.5	> 100	–	–	–	–	–	–	–	–	–	–

Structure (SMILES)	TGI (KM12 colon) [µM]	TGI (COLO 205 colon) [µM]	TGI (NCI-H226 lung) [µM]	TGI (KM20L2 colon) [µM]	TGI (CAKI-1 renal) [µM]	TGI (OVCAR-4 ovarian) [µM]	TGI (UACC-257 melanoma) [µM]	TGI (CCRF-CEM leukemia) [µM]	TGI (DMS 114 small cell lung) [µM]	TGI (EKVX NSCLC) [µM]	TGI (PC-3 prostate) [µM]	GI50 (NCI-H226 lung) [µM]	GI50 (KM12 colon) [µM]	GI50 (PC-3 prostate) [µM]	GI50 (COLO 205 colon) [µM]	GI50 (CAKI-1 renal) [µM]	GI50 (OVCAR-4 ovarian) [µM]	GI50 (UACC-257 melanoma) [µM]	GI50 (CCRF-CEM leukemia) [µM]	GI50 (EKVX NSCLC) [µM]
CCn1c2ccc(C(=O)CCCN3CCCCC3)cc2c2cc(C(=O)CCCN3CCCCC3)ccc21	8.76	15.7	27.2	–	8.54	5.65	3.77	9.83	–	15.8	12.6	–	–	–	–	–	–	–	–	–
COC(=O)[C@@H]1CCCCC[C@H]2C(CO)=C(C)C(=O)C12 (stereo not given in full)	> 100	> 100	> 100	> 100	> 100	> 100	> 100	> 100	> 100	> 100	–	–	–	–	–	–	–	–	–	–
COc1ccc(C2C3=C(COC3=O)Oc3cc4c(cc32)OCO4)c(OC)c1 (stereo not given)	> 100	> 100	> 100	–	> 100	> 100	> 100	> 100	–	> 100	> 100	–	–	–	–	–	–	–	–	–
CC1CCC2(NC1)OC1CC3C4CC=C5CC(OC6OC(CO)C(OC7OC(C)C(O)C(O)C7O)C(O)C6OC6OC(C)C(O)C(O)C6O)CCC5(C)C4CCC3(C)C1C2C (stereo not given)	9.17	35.4	7.97	–	8.66	7.27	6.67	> 55.7	–	6.4	4.28	–	–	–	–	–	–	–	–	–
O=[N+]([O-])c1ccc(NC(=S)N=Nc2c(O)[nH]c3ccc([N+](=O)[O-])cc23)cc1	37.6	> 100	86.5	–	43.2	40.8	50.3	60.4	–	63.6	49.3	–	–	–	–	–	–	–	–	–
CCOc1ccc(Nc2nc(N)nc(N)c2N)cc1	73.5	70.2	> 100	–	70.3	> 100	> 100	> 100	–	> 100	> 100	–	–	–	–	–	–	–	–	–
CC[C@H](Nc1nc(C)nc(N)c1C#N)c1nc2cccc(NCc3ccc(C(=O)NO)cc3)c2c(=O)n1-c1ccccc1	3.45	3.8	4.44	–	3.68	14.6	4.16	9.21	–	3.21	4.04	1.72	1.81	1.47	1.74	1.76	2.74	1.83	0.551	1.56
O=C(CCc1cc(O)cc(O)c1)NCCCNC(=O)CCc1cc(O)cc(O)c1	> 100	> 100	> 100	–	> 100	> 100	> 100	> 100	–	> 100	> 100	–	–	–	–	–	–	–	–	–
COC(=O)C1(CCCCCBr)CCCCCCCCCCC1=O (stereo not given)	> 100	> 100	66.6	–	53.9	> 100	70.2	45	–	> 100	> 100	–	–	–	–	–	–	–	–	–
C=C1C(OC2O[C@@H]3O[C@@]4(C)CC[C@H]5[C@H](C)CC[C@@H](C2=C)[C@@]35O4)O[C@@H]2O[C@@]3(C)CC[C@H]4[C@H](C)CC[C@@H]1[C@@]24O3 (stereo not given in full)	> 50	> 50	> 50	–	> 50	> 50	> 50	> 50	–	> 50	> 50	–	–	–	–	–	–	–	–	–
C=C1OC(c2ccccc2NC)=NC12CCCCC2	> 100	> 100	> 100	–	> 100	> 100	> 100	> 100	–	> 100	> 100	–	–	–	–	–	–	–	–	–
CC1(C)OCC2OC3([C@@H]4OC(C)(C)O[C@H]4CO)OC(C)(C)OC3C2O1 (stereo not given in full)	> 100	> 100	> 100	–	> 100	> 100	> 100	> 100	–	> 100	> 100	–	–	–	–	–	–	–	–	–
COc1ccc2nc(/C(N)=C\C#N)ccc2c1	> 100	> 100	> 100	–	> 100	> 100	> 100	> 100	–	> 100	> 100	–	–	–	–	–	–	–	–	–
Cn1c(=O)c2c(nc3n(Cc4ccccc4)c(=O)c(NCCCBr)cn23)n(C)c1=O	> 100	> 100	> 100	–	> 100	> 100	> 100	> 100	–	> 100	> 100	–	–	–	–	–	–	–	–	–
O=c1nc2c(c(-c3ccc(Br)cc3)[nH]1)COC/C2=C\c1ccc(Br)cc1	> 50	> 50	> 50	–	> 50	> 50	> 50	> 50	–	> 50	> 50	–	–	–	–	–	–	–	–	–
CCC1=C(C(C)=O)[C@@H]2CCCCC[C@@H](C(=O)OC)C2C1=O (stereo not given in full)	> 100	> 100	–	> 100	> 100	> 100	> 100	> 100	> 100	> 100	–	–	–	–	–	–	–	–	–	–
Cc1ccc2c(c1)-c1c(C#N)c(N)nc(-c3ccc(Cl)cc3)c1CCS2(=O)=O	> 100	31.3	> 100	–	> 100	> 100	> 100	> 23.7	–	> 100	> 100	–	–	–	–	–	–	–	–	–
CSC(SC)=C(C(=O)O)P(=O)(O)O	> 100	> 100	> 100	–	> 100	> 100	> 100	> 100	–	> 100	> 100	–	–	–	–	–	–	–	–	–
CS(=O)(=O)Nc1ccc2c(c1)N(S(C)(=O)=O)CC2CCl (stereo not given)	> 100	> 100	> 100	–	> 100	> 100	> 100	> 100	–	> 100	> 100	–	–	–	–	–	–	–	–	–
Cc1c(CN2CCN(C)CC2)c(CN2CCN(C)CC2)c(C)n1-c1ccc(Cl)cc1	> 100	55.5	> 100	–	59.9	> 100	29.1	46.8	–	> 100	> 100	–	–	–	–	–	–	–	–	–
C[C@]12CCC(=O)[C@@H](CCC3=CC(=O)C=CC3=O)[C@@H]1CCC2=O	32	31.2	57.3	–	27.7	53.2	39	> 100	–	47.5	27.5	–	–	–	–	–	–	–	–	–
